“Also recorded” adds a separate entry of the source. Structures can show the parent of a compound that is named as a salt.
Legend:
[1] = test system: nonfailing human right ventricular trabeculae; experiment: contractile response of isolated right ventricular trabeculae from nonfailing human hearts; conditions: with and without forskolin
Method: (§1) Nonfailing hearts were obtained from local potential organ donors whose hearts were not transplanted because of physical or ABO blood type incompatibility. Failing hearts were from patients with end-stage heart failure due to ischemic or non-ischemic dilated cardiomyopathies who underwent cardiac transplantation. The demographic characteristics of the hearts are provided in Results. The contractile response of isolated, field stimulated, human trabeculae was assessed as previously described {1755; a-c}. Trabeculae of uniform size (1 to 2×6 to 8 mm) were mounted in 80 ml muscle bath chambers in Tyrode's solution at pH 7.45 bubbled with 95% O2-5% CO2 at 36^0. After equilibration, a tension of 75% of Lmax was applied to each individual trabeculum. Field-stimulation by a 5-ms pulse at 10% above threshold was then applied, and after equilibration full dose-response curves to isoproterenol, bucindolol or xamoterol were performed using the indicated concentrations and application of increasing doses every 5 minutes. In experiments in which forskolin was used to enhance signal transduction {e,f}, 10^−6 M of this adenylyl cyclase activator was applied to the tissue baths 15-20 minutes prior to the performance of dose-response curves, and allowed to achieve stability of tension response. Systolic tension at each dose was calculated as the stimulated tension in mN/mm^2 minus baseline tension. The maximum tension, concentration of isoproterenol that produced 50% of the maximum developed tension (EC50) and curve slope were computed by nonlinear repeated measures analysis of covariance. […] Statistical methods were employed as described in Examples 3 and 4.

[2] = BEST trial, peripheral venous norepinephrine and haemodynamic changes; assay type: in vivo, human
Method: (§2) Because of an initial delay in setting up the procedures, collection of blood samples for norepinephrine in all randomized patients began 6 months after trial initiation.
(§3) Peripheral venous NE samples were drawn at baseline, 3 and 12 months by inserting a 21 gauge butterfly needle into an arm vein and placing the subject in a quiet room in a supine position for 30 minutes. The initial 3 ml of blood was discarded, and then 5 ml of blood was withdrawn and immediately transferred to pre-chilled 5 ml tubes containing EDTA. Within 30 min plasma was separated and frozen at −70° C. Sites shipped samples on dry ice to a central laboratory (LabCorp, Raritan, N.J.) every 3 mo, where the samples were stored at −85° C. and assayed within 3 weeks. NE was measured by HPLC-electrochemical detection using the Bio-Rad HPLC method (Bio-Rad Laboratories Hercules, Calif.). Quality control included re-measuring all samples with initial values of <200 pg/ml or >2000 pg/ml, from the 2nd stored tube; and routinely (every 20 samples) measuring known amounts.
(§4) Means and standard deviations (SD) for continuous data, and proportions or percentages for categorical data are presented. T-tests or Wilcoxon rank sum tests were used for continuous data, and chi-square or Fisher's exact test for categorical data. An alpha level of 0.05 (2 tailed, unadjusted) was used to indicate statistical significance.

[3] = test system: systemic venous norepinephrine; experiment: as above; assay type: in vivo, human; conditions: for NE change @ 3 mos, mean ± SD: Bucindolol Inter subgroup (Δ NE −244.5, ≦ +145), hydrochloride
Method: as §2, §3, §4

[4] = test system: failing human right ventricular trabeculae; experiment: contractile response of isolated right ventricular trabeculae from failing human hearts; conditions: hydrochloride
Method: as §1

β1-Gly389 receptor [5] = molecular target: T1, β1-Gly389 receptor (Homo sapiens, UniProt P08588); experiment: norepinephrine-stimulated cAMP accumulation in stably transfected CHW cells (functional antagonism); assay type: cell-based
T1 construct: expressed in transfected cells
Method: (§5) Chinese hamster fibroblasts (CHW cells) were stably transfected with the human Arg389 and Gly389 cDNAs as previously described (Mason et al., 1999). Lines with equivalent levels of expression as determined by radioligand binding were studied to ascertain the antagonist effect of bucindolol on norepinephrine stimulated cAMP accumulation. Cells in monolayers were treated with 10 μM norepinephrine in the absence and presence of various concentrations of bucindolol for 20 min at 37° C. and [^3H]cAMP isolated by column chromatography (Salomon, 1991).
(§6) Chinese hamster fibroblasts were stably transfected using constructs previously described so as to separately express the human β1-Arg389 or β1-Gly389 receptors. β1AR expression, and affinity for bucindolol, were determined by radioligand binding studies with ^125I-cyanopindolol (125I-CYP), using 1 μM propranolol to define nonspecific binding as described. Whole cell cAMP accumulation studies were carried out by the [^3H]-adenine method using two lines with equivalent expression levels of the two receptors as indicated. Attached cells were exposed to vehicle (basal), 10 μM norepinephrine or 10 uM norepinephrine with the indicated concentrations of bucindolol for 15 min at 37° C.

β1-Arg389 receptor [6] = molecular target: T2, β1-Arg389 receptor (Homo sapiens, UniProt P08588, G389R); experiment: as above; assay type: cell-based
T2 construct: expressed in transfected cells
Method: as §5, §6

β1-Gly389 receptor [7] = molecular target: T1, β1-Gly389 receptor; experiment: 125I-cyanopindolol competition binding in transfected cells; conditions: 125I-CYP competition, n=3; read-out: affinity for bucindolol (pKi) (converted)
Method: as §6

β1-Arg389 receptor [8] = molecular target: T2, β1-Arg389 receptor; experiment: as above; conditions: 125I-CYP competition, n=3; read-out: affinity for bucindolol (pKi) (converted)
Method: as §6

[9] = bucindolol alone up to 10 μM, hydrochloride

T1 sequence (P08588 whole entry): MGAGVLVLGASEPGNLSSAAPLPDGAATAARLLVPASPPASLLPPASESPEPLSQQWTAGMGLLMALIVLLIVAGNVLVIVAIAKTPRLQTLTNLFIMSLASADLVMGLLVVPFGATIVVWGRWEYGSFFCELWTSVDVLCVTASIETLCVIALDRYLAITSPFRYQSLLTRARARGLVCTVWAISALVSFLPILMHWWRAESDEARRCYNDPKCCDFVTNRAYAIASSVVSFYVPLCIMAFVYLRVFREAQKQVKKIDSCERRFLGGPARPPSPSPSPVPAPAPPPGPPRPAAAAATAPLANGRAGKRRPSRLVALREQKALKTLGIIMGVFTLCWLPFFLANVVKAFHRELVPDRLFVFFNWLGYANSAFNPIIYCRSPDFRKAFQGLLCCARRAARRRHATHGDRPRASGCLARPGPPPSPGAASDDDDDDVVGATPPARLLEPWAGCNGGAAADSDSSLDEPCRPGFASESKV
T2 sequence (P08588 whole entry G389R): as the sequence (P08588 whole entry) above, with G389R counted along it

CC(C)(Cc1c[nH]c2ccccc12)NCC(O)COc1ccccc1C#N (stereo not drawn) [bucindolol, (2-{2-hydroxy-3{{2-(3-indolyl)-1,1-dimethylethyl}amino}propoxy}-benzonitrile hydrochloride)]
intrinsic sympathomimetic activity (increase in force) [1]: no evidence of ISA
Change in LVEF @ 12 mos ([2]; Bucindolol Incr subgroup): 7.1 ± 8.8 EFU
Change in LVEF @ 12 mos ([2]; Bucindolol Inter subgroup): 7.3 ± 10.4 EFU
Change in LVEF @ 12 mos ([2]; Bucindolol Redxn subgroup): 8.8 ± 9.2 EFU
decrease in norepinephrine relative to changes in the placebo group ([3]; 3 months): 19%
decrease in norepinephrine relative to changes in the placebo group ([3]; 12 months): 13%
average decrease in norepinephrine at 3 months ([3]; 153 bucindolol subjects at higher mortality risk with norepinephrine reduction): 529 pg/mL
Change in SBP @ 12 mos ([3]; Bucindolol Incr subgroup): −0.9 ± 16.8 mm Hg
HR (heart rate) change @ 12 mos ([3]; Bucindolol Incr subgroup): −8.1 ± 14.6 BPM
Change in LVEF @ 3 mos ([3]; Bucindolol Inter subgroup): 5.7 ± 7.9 EFU
Change in SBP @ 3 mos ([3]; Bucindolol Inter subgroup): −0.5 ± 15.7 mm Hg
Change in SBP @ 12 mos ([3]; Bucindolol Inter subgroup): 0.7 ± 18.0 mm Hg
HR (heart rate) change @ 3 mos ([3]; Bucindolol Inter subgroup): −9.7 ± 12.4 BPM
HR (heart rate) change @ 12 mos ([3]; Bucindolol Inter subgroup): −7.9 ± 13.5 BPM
NE change @ 3 mos, mean ± SD ([3]; n = 551): -44 pg/mL
NE change @ 3 mos, mean ± SD ([3]; n = 551, listed as Bucindolol): -44 ± 103 pg/mL
NE change @ 12 mos, mean ± SD ([3]; Bucindolol Inter subgroup, n = 551): 17.5 ± 216 pg/mL
Change in SBP @ 3 mos ([3]; Bucindolol Redxn subgroup): −0.7 ± 18.2 mm Hg
Change in SBP @ 12 mos ([3]; Bucindolol Redxn subgroup): 2.7 ± 20.1 mm Hg
proportion of bucindolol-treated patients with marked norepinephrine reduction at 3 months ([3]; NE reduction ≧244.5 pg/ml): 18%
average reduction in norepinephrine at 3 months (SEM) ([3]; α2c DEL 322-325 carriers): 153 ± 57 pg/mL
average reduction in norepinephrine at 3 months (SEM) ([3]; α2c WT/WT patients): 50 ± 13 pg/mL
intrinsic sympathomimetic activity (increase in force) ([4]; failing hearts, with and without forskolin): no significant increase in force development; also recorded: no evidence of ISA
inotropic effect on systolic force (dose-response curve slope) ([4]; β1AR Arg/Arg, forskolin pretreatment): inverse agonist; also recorded: negative curve slope
inotropic effect on systolic force (dose-response curve slope) ([4]; β1AR Gly carriers, forskolin pretreatment): neutral antagonist; also recorded: not different from 0
inotropic effect on systolic force (dose-response curve slope) ([4]; β1AR Gly carriers, without forskolin): inverse agonist; also recorded: negative inotropic effect
maximal decrease of cAMP (β1-Gly389 receptor [5]; 10 μM norepinephrine + bucindolol, Gly389 cells, N=4): 115 ± 23 fmol/mL
stimulation of cAMP by bucindolol alone (intrinsic sympathomimetic activity) (β1-Gly389 receptor [5]; [9]): no stimulation of cAMP; also recorded: no evidence for intrinsic sympathomimetic activity
inhibition at 0.1 µM (β1-Arg389 receptor [6]; 0.1 μM bucindolol, read-out: inhibition of the Arg389 cAMP response): ~80%
maximal decrease of cAMP (β1-Arg389 receptor [6]; 10 μM norepinephrine + bucindolol, Arg389 cells, N=4): 435 ± 80 fmol/mL
stimulation of cAMP by bucindolol alone (intrinsic sympathomimetic activity) (β1-Arg389 receptor [6]; [9]): no stimulation of cAMP; also recorded: no evidence for intrinsic sympathomimetic activity
Ki (β1-Gly389 receptor [7]): 0.251 nM
Ki (β1-Arg389 receptor [8]): 0.251 nM

— US8093286B2, “Methods for treatment with bucindolol based on genetic targeting” (The Regents of the University of Colorado, a body corporate, priority 2004, dated 2012)
